Key:
[1] = tested on: persian speedwell; assay: Test Example 4: herbicidal effect by soil treatment (Table 19, symbol R); format: in vivo, Persian speedwell (Veronica persica); details: amount of applied herbicide 320 g/ha
Outline: (§1)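 Pre-emergence style soil spray: seeds under ~1.5 cm sterilized diluvial soil received a uniform coat of emulsion diluted to the predetermined herbicide amount. Greenhouse 25–30° C; readout at week three on previously defined criteria.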

[2] = tested on: wild oat; assay: Test Example 5: herbicidal effect by foliage application, plastic box (Table 20, symbol I); format: in vivo, wild oat (Avena fatua); details: 320 g/ha, foliage application after 14-day growth, evaluated three weeks after application
Outline: (§2)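 Plants were sown into sterilized diluvial soil under about 1.5 cm cover and kept in a greenhouse at 25° C. to 30° C. Fourteen days on, foliage received an even spray of the diluted emulsion. Herbicidal or crop effect was judged three weeks afterwards.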

[3] = tested on: barnyard grass; assay: Test Example 3: herbicidal effect by foliage application, Wagner pot (Table 18, symbol H); format: in vivo, barnyard grass (Echinochloa crus-galli); details: 320 g/ha
Outline: (§3)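 Plants were sown in alluvial soil held under 0.1–0.5 cm standing water and grown 14 days in a greenhouse at 25–30 °C. An emulsifiable formulation, water-diluted to the set dose, was then sprayed onto the foliage, and effects were scored three weeks later using previously defined criteria.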

[4] = tested on: lambsquarters; assay: Test Example 4: herbicidal effect by soil treatment (Table 19, symbol O); format: in vivo, lambsquarters (Chenopodium album); details: amount of applied herbicide 320 g/ha
Outline: as §1

[5] = tested on: windgrass; assay: Test Example 5: herbicidal effect by foliage application, plastic box (Table 20, symbol L); format: in vivo, windgrass (Apera spica-venti); details: 320 g/ha, foliage application after 14-day growth, evaluated three weeks after application
Outline: as §2

[6] = tested on: velvetleaf; assay: Test Example 5: herbicidal effect by foliage application, plastic box (Table 20, symbol M); format: in vivo, velvetleaf (Abutilon theophrasti); details: 320 g/ha, foliage application after 14-day growth, evaluated three weeks after application
Outline: as §2

[7] = tested on: southern crabgrass; assay: Test Example 4: herbicidal effect by soil treatment (Table 19, symbol F); format: in vivo, southern crabgrass (Digitaria ciliaris); details: amount of applied herbicide 320 g/ha
Outline: as §1

[8] = tested on: oval-leafed pondweed; assay: Test Example 2: herbicidal activity, application during weed generation under submerged conditions (Table 17, symbol C); format: in vivo, oval-leafed pondweed (Monochoria vaginalis); details: AAH 320 g/ha; application during weed generation, submerged conditions
Outline: (§4)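 In this pot test, flooded alluvial soil (water depth 4 cm) holds all three species sown as a mixture. Once seedlings have one to two leaves, the compound's emulsion, thinned with water to the intended dose, is poured on the water; grading follows after three weeks on the earlier criteria.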

[9] = tested on: green foxtail; assay: Test Example 5: herbicidal effect by foliage application, plastic box (Table 20, symbol G); format: in vivo, green foxtail (Setaria viridis); details: 320 g/ha, foliage application after 14-day growth, evaluated three weeks after application
Outline: as §2

[10] = tested on: southern crabgrass; assay: Test Example 5: herbicidal effect by foliage application, plastic box (Table 20, symbol F); format: in vivo, southern crabgrass (Digitaria ciliaris); details: 320 g/ha, foliage application after 14-day growth, evaluated three weeks after application
Outline: as §2

[11] = tested on: Italian ryegrass; assay: Test Example 4: herbicidal effect by soil treatment (Table 19, symbol K); format: in vivo, Italian ryegrass (Lolium multiflorum); details: amount of applied herbicide 320 g/ha
Outline: as §1

[12] = tested on: chickweed; assay: Test Example 5: herbicidal effect by foliage application, plastic box (Table 20, symbol P); format: in vivo, common chickweed (Stellaria media); details: 320 g/ha, foliage application after 14-day growth, evaluated three weeks after application
Outline: as §2

[13] = tested on: barnyard grass; assay: Test Example 5: herbicidal effect by foliage application, plastic box (Table 20, symbol H); format: in vivo, barnyard grass (Echinochloa crus-galli); details: 320 g/ha, foliage application after 14-day growth, evaluated three weeks after application
Outline: as §2

[14] = tested on: chickweed; assay: Test Example 4: herbicidal effect by soil treatment (Table 19, symbol P); format: in vivo, common chickweed (Stellaria media); details: amount of applied herbicide 320 g/ha
Outline: as §1

[15] = tested on: persian speedwell; assay: Test Example 5: herbicidal effect by foliage application, plastic box (Table 20, symbol R); format: in vivo, Persian speedwell (Veronica persica); details: 320 g/ha, foliage application after 14-day growth, evaluated three weeks after application
Outline: as §2

[16] = tested on: Italian ryegrass; assay: Test Example 5: herbicidal effect by foliage application, plastic box (Table 20, symbol K); format: in vivo, Italian ryegrass (Lolium multiflorum); details: 320 g/ha, foliage application after 14-day growth, evaluated three weeks after application
Outline: as §2

[17] = tested on: windgrass; assay: Test Example 4: herbicidal effect by soil treatment (Table 19, symbol L); format: in vivo, windgrass (Apera spica-venti); details: amount of applied herbicide 320 g/ha
Outline: as §1

[18] = tested on: barnyard grass; assay: Test Example 4: herbicidal effect by soil treatment (Table 19, symbol H); format: in vivo, barnyard grass (Echinochloa crus-galli); details: amount of applied herbicide 320 g/ha
Outline: as §1

[19] = tested on: Chinese sprangletop; assay: Test Example 3: herbicidal effect by foliage application, Wagner pot (Table 18, symbol D); format: in vivo, chinese sprangletop (Leptochloa chinensis); details: 320 g/ha
Outline: as §3

[20] = tested on: wild oat; assay: Test Example 4: herbicidal effect by soil treatment (Table 19, symbol I); format: in vivo, wild oat (Avena fatua); details: amount of applied herbicide 320 g/ha
Outline: as §1

[21] = tested on: blackgrass; assay: Test Example 4: herbicidal effect by soil treatment (Table 19, symbol J); format: in vivo, blackgrass (Alopecurus myosuroides); details: amount of applied herbicide 320 g/ha
Outline: as §1

[22] = tested on: late watergrass; assay: Test Example 2: herbicidal activity, application during weed generation under submerged conditions (Table 17, symbol A); format: in vivo, late watergrass (Echinochloa oryzicola); details: AAH 320 g/ha; application during weed generation, submerged conditions
Outline: as §4

[23] = tested on: lambsquarters; assay: Test Example 5: herbicidal effect by foliage application, plastic box (Table 20, symbol O); format: in vivo, lambsquarters (Chenopodium album); details: 320 g/ha, foliage application after 14-day growth, evaluated three weeks after application
Outline: as §2

[24] = tested on: redroot pigweed; assay: Test Example 5: herbicidal effect by foliage application, plastic box (Table 20, symbol N); format: in vivo, redroot pigweed (Amaranthus retroflexus); details: 320 g/ha, foliage application after 14-day growth, evaluated three weeks after application
Outline: as §2

[25] = tested on: rice flat sedge; assay: Test Example 3: herbicidal effect by foliage application, Wagner pot (Table 18, symbol E); format: in vivo, rice flat sedge (Cyperus iria); details: 320 g/ha
Outline: as §3

[26] = tested on: velvetleaf; assay: Test Example 4: herbicidal effect by soil treatment (Table 19, symbol M); format: in vivo, velvetleaf (Abutilon theophrasti); details: amount of applied herbicide 320 g/ha
Outline: as §1

[27] = tested on: blackgrass; assay: Test Example 5: herbicidal effect by foliage application, plastic box (Table 20, symbol J); format: in vivo, blackgrass (Alopecurus myosuroides); details: 320 g/ha, foliage application after 14-day growth, evaluated three weeks after application
Outline: as §2

[28] = tested on: green foxtail; assay: Test Example 4: herbicidal effect by soil treatment (Table 19, symbol G); format: in vivo, green foxtail (Setaria viridis); details: amount of applied herbicide 320 g/ha
Outline: as §1

[29] = tested on: redroot pigweed; assay: Test Example 4: herbicidal effect by soil treatment (Table 19, symbol N); format: in vivo, redroot pigweed (Amaranthus retroflexus); details: amount of applied herbicide 320 g/ha
Outline: as §1

[30] = tested on: Japanese bulrush; assay: Test Example 2: herbicidal activity, application during weed generation under submerged conditions (Table 17, symbol B); format: in vivo, Japanese bulrush (Schoenoplectus juncoides); details: AAH 320 g/ha; application during weed generation, submerged conditions
Outline: as §4

Structure (SMILES)	Herbicidal effect by soil treatment, R: persian speedwell [1]	herbicidal effect on I: wild oat (evaluation grade 0-5) [2]	herbicidal effect on barnyard grass (H) [3]	Herbicidal effect by soil treatment, O: lambsquarters [4]	herbicidal effect on L: windgrass (evaluation grade 0-5) [5]	herbicidal effect on M: velvetleaf (evaluation grade 0-5) [6]	Herbicidal effect by soil treatment, F: southern crabgrass [7]	herbicidal effect rating, C: oval-leafed pondweed [8]	herbicidal effect on G: green foxtail (evaluation grade 0-5) [9]	herbicidal effect on F: southern crabgrass (evaluation grade 0-5) [10]	Herbicidal effect by soil treatment, K: Italian ryegrass [11]	herbicidal effect on P: chickweed (evaluation grade 0-5) [12]	herbicidal effect on H: barnyard grass (evaluation grade 0-5) [13]	Herbicidal effect by soil treatment, P: chickweed [14]	herbicidal effect on R: persian speedwell (evaluation grade 0-5) [15]	herbicidal effect on K: Italian ryegrass (evaluation grade 0-5) [16]	Herbicidal effect by soil treatment, L: windgrass [17]	Herbicidal effect by soil treatment, H: barnyard grass [18]	herbicidal effect on Chinese sprangletop (D) [19]	Herbicidal effect by soil treatment, I: wild oat [20]	other results
CCCC(=O)Oc1c(C)nn(C)c(=O)c1-c1c(-c2ccccc2OC)sc2c(F)cccc12 [4-004]	0 (Herbicidal rate of 5% or less (almost no effect))	0 (Herbicidal rate of 5% or less (almost no effect))	4 (Herbicidal rate of 70% or more and less than 90%)	3 (Herbicidal rate of 40% or more and less than 70%)	0 (Herbicidal rate of 5% or less (almost no effect))	4 (Herbicidal rate of 70% or more and less than 90%)	0 (Herbicidal rate of 5% or less (almost no effect))	2 (Herbicidal rate of 20% or more and less than 40%)	4 (Herbicidal rate of 70% or more and less than 90%)	3 (Herbicidal rate of 40% or more and less than 70%)	0 (Herbicidal rate of 5% or less (almost no effect))	5 (Herbicidal rate of 90% or more (almost completely withered))	3 (Herbicidal rate of 40% or more and less than 70%)	1 (Herbicidal rate of 5% or more and less than 20%)	4 (Herbicidal rate of 70% or more and less than 90%)	0 (Herbicidal rate of 5% or less (almost no effect))	0 (Herbicidal rate of 5% or less (almost no effect))	1 (Herbicidal rate of 5% or more and less than 20%)	3 (Herbicidal rate of 40% or more and less than 70%)	0 (Herbicidal rate of 5% or less (almost no effect))	Herbicidal effect by soil treatment, J: blackgrass [21]: 0 (Herbicidal rate of 5% or less (almost no effect)); herbicidal effect rating, A: late watergrass [22]: 3 (Herbicidal rate of 40% or more and less than 70%); herbicidal effect on O: lambsquarters (evaluation grade 0-5) [23]: 2 (Herbicidal rate of 20% or more and less than 40%); herbicidal effect on N: redroot pigweed (evaluation grade 0-5) [24]: 5 (Herbicidal rate of 90% or more (almost completely withered)); herbicidal effect on rice flat sedge (E) [25]: 4 (Herbicidal rate of 70% or more and less than 90%); Herbicidal effect by soil treatment, M: velvetleaf [26]: 0 (Herbicidal rate of 5% or less (almost no effect)); herbicidal effect on J: blackgrass (evaluation grade 0-5) [27]: 0 (Herbicidal rate of 5% or less (almost no effect)); Herbicidal effect by soil treatment, G: green foxtail [28]: 0 (Herbicidal rate of 5% or less (almost no effect)); Herbicidal effect by soil treatment, N: redroot pigweed [29]: 3 (Herbicidal rate of 40% or more and less than 70%); herbicidal effect rating, B: Japanese bulrush [30]: 0 (Herbicidal rate of 5% or less (almost no effect))
CCCC(=O)Oc1c(C)nn(C)c(=O)c1-c1c(-c2ccc(F)cc2)sc2c(Cl)cccc12 [4-016]	0 (Herbicidal rate of 5% or less (almost no effect))	3 (Herbicidal rate of 40% or more and less than 70%)	3 (Herbicidal rate of 40% or more and less than 70%)	1 (Herbicidal rate of 5% or more and less than 20%)	5 (Herbicidal rate of 90% or more (almost completely withered))	5 (Herbicidal rate of 90% or more (almost completely withered))	2 (Herbicidal rate of 20% or more and less than 40%)	0 (Herbicidal rate of 5% or less (almost no effect))	0 (Herbicidal rate of 5% or less (almost no effect))	0 (Herbicidal rate of 5% or less (almost no effect))	0 (Herbicidal rate of 5% or less (almost no effect))	5 (Herbicidal rate of 90% or more (almost completely withered))	0 (Herbicidal rate of 5% or less (almost no effect))	1 (Herbicidal rate of 5% or more and less than 20%)	3 (Herbicidal rate of 40% or more and less than 70%)	0 (Herbicidal rate of 5% or less (almost no effect))	0 (Herbicidal rate of 5% or less (almost no effect))	1 (Herbicidal rate of 5% or more and less than 20%)	5 (Herbicidal rate of 90% or more (almost completely withered))	0 (Herbicidal rate of 5% or less (almost no effect))	Herbicidal effect by soil treatment, J: blackgrass [21]: 0 (Herbicidal rate of 5% or less (almost no effect)); herbicidal effect rating, A: late watergrass [22]: 2 (Herbicidal rate of 20% or more and less than 40%); herbicidal effect on O: lambsquarters (evaluation grade 0-5) [23]: 1 (Herbicidal rate of 5% or more and less than 20%); herbicidal effect on N: redroot pigweed (evaluation grade 0-5) [24]: 3 (Herbicidal rate of 40% or more and less than 70%); herbicidal effect on rice flat sedge (E) [25]: 4 (Herbicidal rate of 70% or more and less than 90%); Herbicidal effect by soil treatment, M: velvetleaf [26]: 0 (Herbicidal rate of 5% or less (almost no effect)); herbicidal effect on J: blackgrass (evaluation grade 0-5) [27]: 0 (Herbicidal rate of 5% or less (almost no effect)); Herbicidal effect by soil treatment, G: green foxtail [28]: 3 (Herbicidal rate of 40% or more and less than 70%); Herbicidal effect by soil treatment, N: redroot pigweed [29]: 3 (Herbicidal rate of 40% or more and less than 70%); herbicidal effect rating, B: Japanese bulrush [30]: 0 (Herbicidal rate of 5% or less (almost no effect))

Reference: US20230085307A1, “PYRIDAZINONE COMPOUND AND HERBICIDE” (NISSAN CHEMICAL CORPORATION, priority 2019, published 2023)
